pKd: −log10 of the molar value. Values belong to the substance of their own block, whether it stands above or below them.
Assays:
[1] = tested on: Rabbit megalin; experiment: Megalin-cubilin interaction analysis by surface plasmon resonance; type: binding
Method: Rabbit megalin was immobilized to a sensor chip and the on rates and off rates for the binding of cubilin was recorded by flow of 20 nM purified cubilin along the chip surface. For control, cubilin was subjected to a blank chip. […] The binding curves in the presence of 10 mM EDTA or after prebinding of RAP to megalin are also shown. […] By fitting the binding data to a one-binding-site model a Kd of 7 nM was measured.
Surface plasmon resonance measurements were performed on a BIAcore 2000 instrument (Pharmacia, Sweden). BIAcore sensor chips (type CM5, Pharmacia) were activated with 1:1 mixture of 0.2 M N-ethyl-N′-(3-dimethylaminopropyl) carbodiimide and 0.05 M N-hydroxysuccimine in water. Rabbit megalin was immobilized as described (Moestrup et al., 1996) at a concentration of 40 μg/ml in 10 mM sodium acetate, pH 4.5 and the remaining binding sites were blocked with 1 M ethanolamine, pH 8.5. The flow buffer was 10 mM Hepes, 150 mM NaCl and […], 1 mM EDTA, pH 7.4. The binding data were analyzed using the BIAevaluation program.
Bound radiolabel was released from the column by EDTA. Surface plasmon analysis (FIG. 10A) confirmed this binding. […] Megalin-bound cubilin was still capable of binding IF-B12 as shown by subjecting the megalin-chip to flow with IF-B12 after the binding of cubilin (FIG. 10B). Thus, the response after adding IF-B12 represents the formation of a megalin-cubilin-IF-B12 complex.

[2] = target: rabbit megalin (rabbit); experiment: SPR, RAP prebound to immobilized rabbit megalin; competitor cubilin in flow
[3] = target: megalin in native membranes (rat renal brush-border membrane vesicles; rat yolk sac cells) (rat) (UniProt P98158); experiment: cell-based or functional assay
[4] = target: T1, Cubilin (Rattus norvegicus, UniProt O70244); experiment: Ligands for cubilin: competition with known ligands; type: binding; conditions: RAP vs IF-B12; haptoglobin vs light chains; gentamicin vs light chain
[5] = tested on: yolk sac epithelial cells (BN/MSV); experiment: Endocytosis of FITC-light chain by yolk sac cells; type: cell-based, rat; conditions: 30 min, FIG. 14A; antibody at 1:1,000 dilution
Method: The yolk sac epithelial cell line (BN/MSV) was derived from yolk sac teratocarcinoma induced by fetectomy and placental injection of mouse sarcoma virus (Sahali et al., 1988). When grown under conventional conditions in modified Eagle's medium, supplemented with 2.5 mM L-glutamine, 10% fetal calf serum, and an antibiotic cocktail (penicillin, streptomycin, and Fungizone), the cells form a domed monolayer and express abundant cubilin (Sahali et al., 1988).
Internalization experiments were conducted by exposing confluent yolk sac cells in 24-cell plates to […] FITC-conjugated light chain. These cells were selected for endocytosis experiments because cubilin expression is 100-fold greater than cultured proximal tubule cells (Sahali et al., 1988). […] This concentration is selected because it is 10-fold higher than the half-maximal inhibitory concentration of the antibody determined from the brush border binding inhibition experiments. […] Cells are then trypsininzed, fixed in 1% formaldehyde, and suspended in PBS, and FITC incorporated into each cell is read in a Becton-Dickinson flow cytometer as described previously. Endocytosis curves are generated by plotting fluorescence units corrected for background against time. […]

[6] = target: T1, Cubilin; experiment: Surface plasmon resonance analysis of light chain/cubilin interaction; type: binding; set-up: from tissue; host or cells: rat renal cortex (intermicrovillar clefts); conditions: cubilin 100 nM preincubated with κ-light chains (10 or 490 μM) or λ-light chains (10 μM)
Method: A sample of cubilin (100 nM) was incubated with κ-light chains (10 or 490 μM), or […] prior to injecting the sample over the κ-light chain surface. The binding of cubilin to the immobilized surfaces was reduced in the presence of κ- or λ-light chains in a dose-response fashion. Data are representative of experiments with 4 light chains on 3 chips. […] LC, light chains: RU, response units.
Intermicrovillar clefts prepared from renal cortices were biotinylated on the cytosolic facade using NHS-biotin (Winearls, 1995). Cubilin and the associated proteins were purified by immunoaffinity chromatography MAb 75 was coupled to CNBr-activated Sepharose 4B (Pharmacia, Saint Quentin en Yvelines, France) as previously described (Sahali et al., 1988; 1993). Protease inhibitors were added at all steps.
κ- or λ-light chains were immobilized via free amine groups to the dextran matrix of CM5 sensor chips activated by a 1/1 mixture of NHS and EDC. Unreacted sites were blocked with 1M ethanolamine, pH 8.5, (Jonsson et al., 1991; Sanders et al., 1988). The immobilization was conducted at 25° C. using 10 mM HEPES, 2 mM CaCl2, 150 mM NaCl, 0.005% NP-40, pH 7.4 as the flow buffer. Then 10 mM acetate pH 4.8 was used for electrostatic pre-concentration of the protein. […]

[7] = tested on: rat renal cortical intermicrovillar clefts; experiment: Endosomal fusion reconstituted in vitro (energy transfer); type: biochemical; set-up: dose or concentration left out as unconfirmed; conditions: membranes loaded with λ-light chains via homogenization buffer; n=8
Description: The λ_light chains were loaded into rat renal cortical intermicrovillar cleft at […] by addition to the homogenization buffer. Fusion reconstituted in vitro in light chain-loaded membranes was inhibited compared with albumin-loaded control membranes. Values are mean±standard error for n=8, p<0.05 by unpaired t-test.
Fusion of these light chain loaded membranes was compared to control membranes loaded with the same concentration of albumin. All fluorescence measurements were corrected per mg of protein, and fusion reconstituted in vitro in cuvettes (Hammond et al., 1994). Data are expressed as mean +standard error of the mean throughout the application. Statistical analysis was performed by analysis of variance and Bonferroni or Scheffe's post hoc comparison.
To test whether myeloma light chains are functionally important in membrane trafficking and fusion events, intermicrovillar clefts were loaded with light chains by adding it to the homogenization buffer (Hammond et al., 1994). Fusion reconstituted in vitro in cuvettes was assayed by energy transfer, and results were normalized per milligram protein (Hammond et al., 1994; Jo et al., 1995).

[8] = target: rabbit megalin (rabbit); experiment: SPR (BIAcore 2000), rabbit megalin immobilized, 20 nM purified cubilin in flow, blank chip subtracted, one-binding-site fit
[9] = tested on: renal brush border membrane; conditions: cited from earlier work
[10] = tested on: rat renal brush border membrane vesicles; experiment: Gentamicin competition with fluorescein-light chain binding to brush border membrane vesicles (flow cytometry); conditions: control 39.6±4.2, n=4
Method: Given the abundance of megalin on the renal brush border membrane, if megalin is a light chain receptor this would predict that small polybasic drugs, such as gentamicin, which are known ligands for megalin, should compete for light chain binding to renal brush border membrane vesicles. To test this, rat renal brush border membrane vesicles were incubated in fluorescein-conjugated light chains with various concentrations of gentamicin. After washing, fluorescein-light chain binding to the membranes was analyzed by flow cytometry (FIG. 16). Estimate of half maximal binding concentration of gentamicin between 60 and 70 μM was placed in the middle of the curve. Gentamicin competes with fluorescent light chain binding to renal brush border membranes in a dose-dependent manner (control FITC-light chain binding 39.6±4.2 arbitrary fluorescence units, 10 μM gentamicin 45.1±3.1, 100 μM gentamicin 8.9±33.8*, 1000 μM gentamicin 6.3±1.9*, n=4, *p<0.05).

Chain of RAP (Receptor related protein) (ligand) (P30533 35-357): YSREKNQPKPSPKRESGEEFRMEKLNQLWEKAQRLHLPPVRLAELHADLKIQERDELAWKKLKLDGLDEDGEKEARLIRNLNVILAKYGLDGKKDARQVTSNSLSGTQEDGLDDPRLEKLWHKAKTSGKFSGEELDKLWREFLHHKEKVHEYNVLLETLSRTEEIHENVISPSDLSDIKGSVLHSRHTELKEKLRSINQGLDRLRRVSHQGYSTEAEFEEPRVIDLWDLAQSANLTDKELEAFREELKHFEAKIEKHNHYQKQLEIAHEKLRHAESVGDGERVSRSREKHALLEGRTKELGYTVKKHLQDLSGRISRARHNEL
T1 sequence (O70244 33-3623): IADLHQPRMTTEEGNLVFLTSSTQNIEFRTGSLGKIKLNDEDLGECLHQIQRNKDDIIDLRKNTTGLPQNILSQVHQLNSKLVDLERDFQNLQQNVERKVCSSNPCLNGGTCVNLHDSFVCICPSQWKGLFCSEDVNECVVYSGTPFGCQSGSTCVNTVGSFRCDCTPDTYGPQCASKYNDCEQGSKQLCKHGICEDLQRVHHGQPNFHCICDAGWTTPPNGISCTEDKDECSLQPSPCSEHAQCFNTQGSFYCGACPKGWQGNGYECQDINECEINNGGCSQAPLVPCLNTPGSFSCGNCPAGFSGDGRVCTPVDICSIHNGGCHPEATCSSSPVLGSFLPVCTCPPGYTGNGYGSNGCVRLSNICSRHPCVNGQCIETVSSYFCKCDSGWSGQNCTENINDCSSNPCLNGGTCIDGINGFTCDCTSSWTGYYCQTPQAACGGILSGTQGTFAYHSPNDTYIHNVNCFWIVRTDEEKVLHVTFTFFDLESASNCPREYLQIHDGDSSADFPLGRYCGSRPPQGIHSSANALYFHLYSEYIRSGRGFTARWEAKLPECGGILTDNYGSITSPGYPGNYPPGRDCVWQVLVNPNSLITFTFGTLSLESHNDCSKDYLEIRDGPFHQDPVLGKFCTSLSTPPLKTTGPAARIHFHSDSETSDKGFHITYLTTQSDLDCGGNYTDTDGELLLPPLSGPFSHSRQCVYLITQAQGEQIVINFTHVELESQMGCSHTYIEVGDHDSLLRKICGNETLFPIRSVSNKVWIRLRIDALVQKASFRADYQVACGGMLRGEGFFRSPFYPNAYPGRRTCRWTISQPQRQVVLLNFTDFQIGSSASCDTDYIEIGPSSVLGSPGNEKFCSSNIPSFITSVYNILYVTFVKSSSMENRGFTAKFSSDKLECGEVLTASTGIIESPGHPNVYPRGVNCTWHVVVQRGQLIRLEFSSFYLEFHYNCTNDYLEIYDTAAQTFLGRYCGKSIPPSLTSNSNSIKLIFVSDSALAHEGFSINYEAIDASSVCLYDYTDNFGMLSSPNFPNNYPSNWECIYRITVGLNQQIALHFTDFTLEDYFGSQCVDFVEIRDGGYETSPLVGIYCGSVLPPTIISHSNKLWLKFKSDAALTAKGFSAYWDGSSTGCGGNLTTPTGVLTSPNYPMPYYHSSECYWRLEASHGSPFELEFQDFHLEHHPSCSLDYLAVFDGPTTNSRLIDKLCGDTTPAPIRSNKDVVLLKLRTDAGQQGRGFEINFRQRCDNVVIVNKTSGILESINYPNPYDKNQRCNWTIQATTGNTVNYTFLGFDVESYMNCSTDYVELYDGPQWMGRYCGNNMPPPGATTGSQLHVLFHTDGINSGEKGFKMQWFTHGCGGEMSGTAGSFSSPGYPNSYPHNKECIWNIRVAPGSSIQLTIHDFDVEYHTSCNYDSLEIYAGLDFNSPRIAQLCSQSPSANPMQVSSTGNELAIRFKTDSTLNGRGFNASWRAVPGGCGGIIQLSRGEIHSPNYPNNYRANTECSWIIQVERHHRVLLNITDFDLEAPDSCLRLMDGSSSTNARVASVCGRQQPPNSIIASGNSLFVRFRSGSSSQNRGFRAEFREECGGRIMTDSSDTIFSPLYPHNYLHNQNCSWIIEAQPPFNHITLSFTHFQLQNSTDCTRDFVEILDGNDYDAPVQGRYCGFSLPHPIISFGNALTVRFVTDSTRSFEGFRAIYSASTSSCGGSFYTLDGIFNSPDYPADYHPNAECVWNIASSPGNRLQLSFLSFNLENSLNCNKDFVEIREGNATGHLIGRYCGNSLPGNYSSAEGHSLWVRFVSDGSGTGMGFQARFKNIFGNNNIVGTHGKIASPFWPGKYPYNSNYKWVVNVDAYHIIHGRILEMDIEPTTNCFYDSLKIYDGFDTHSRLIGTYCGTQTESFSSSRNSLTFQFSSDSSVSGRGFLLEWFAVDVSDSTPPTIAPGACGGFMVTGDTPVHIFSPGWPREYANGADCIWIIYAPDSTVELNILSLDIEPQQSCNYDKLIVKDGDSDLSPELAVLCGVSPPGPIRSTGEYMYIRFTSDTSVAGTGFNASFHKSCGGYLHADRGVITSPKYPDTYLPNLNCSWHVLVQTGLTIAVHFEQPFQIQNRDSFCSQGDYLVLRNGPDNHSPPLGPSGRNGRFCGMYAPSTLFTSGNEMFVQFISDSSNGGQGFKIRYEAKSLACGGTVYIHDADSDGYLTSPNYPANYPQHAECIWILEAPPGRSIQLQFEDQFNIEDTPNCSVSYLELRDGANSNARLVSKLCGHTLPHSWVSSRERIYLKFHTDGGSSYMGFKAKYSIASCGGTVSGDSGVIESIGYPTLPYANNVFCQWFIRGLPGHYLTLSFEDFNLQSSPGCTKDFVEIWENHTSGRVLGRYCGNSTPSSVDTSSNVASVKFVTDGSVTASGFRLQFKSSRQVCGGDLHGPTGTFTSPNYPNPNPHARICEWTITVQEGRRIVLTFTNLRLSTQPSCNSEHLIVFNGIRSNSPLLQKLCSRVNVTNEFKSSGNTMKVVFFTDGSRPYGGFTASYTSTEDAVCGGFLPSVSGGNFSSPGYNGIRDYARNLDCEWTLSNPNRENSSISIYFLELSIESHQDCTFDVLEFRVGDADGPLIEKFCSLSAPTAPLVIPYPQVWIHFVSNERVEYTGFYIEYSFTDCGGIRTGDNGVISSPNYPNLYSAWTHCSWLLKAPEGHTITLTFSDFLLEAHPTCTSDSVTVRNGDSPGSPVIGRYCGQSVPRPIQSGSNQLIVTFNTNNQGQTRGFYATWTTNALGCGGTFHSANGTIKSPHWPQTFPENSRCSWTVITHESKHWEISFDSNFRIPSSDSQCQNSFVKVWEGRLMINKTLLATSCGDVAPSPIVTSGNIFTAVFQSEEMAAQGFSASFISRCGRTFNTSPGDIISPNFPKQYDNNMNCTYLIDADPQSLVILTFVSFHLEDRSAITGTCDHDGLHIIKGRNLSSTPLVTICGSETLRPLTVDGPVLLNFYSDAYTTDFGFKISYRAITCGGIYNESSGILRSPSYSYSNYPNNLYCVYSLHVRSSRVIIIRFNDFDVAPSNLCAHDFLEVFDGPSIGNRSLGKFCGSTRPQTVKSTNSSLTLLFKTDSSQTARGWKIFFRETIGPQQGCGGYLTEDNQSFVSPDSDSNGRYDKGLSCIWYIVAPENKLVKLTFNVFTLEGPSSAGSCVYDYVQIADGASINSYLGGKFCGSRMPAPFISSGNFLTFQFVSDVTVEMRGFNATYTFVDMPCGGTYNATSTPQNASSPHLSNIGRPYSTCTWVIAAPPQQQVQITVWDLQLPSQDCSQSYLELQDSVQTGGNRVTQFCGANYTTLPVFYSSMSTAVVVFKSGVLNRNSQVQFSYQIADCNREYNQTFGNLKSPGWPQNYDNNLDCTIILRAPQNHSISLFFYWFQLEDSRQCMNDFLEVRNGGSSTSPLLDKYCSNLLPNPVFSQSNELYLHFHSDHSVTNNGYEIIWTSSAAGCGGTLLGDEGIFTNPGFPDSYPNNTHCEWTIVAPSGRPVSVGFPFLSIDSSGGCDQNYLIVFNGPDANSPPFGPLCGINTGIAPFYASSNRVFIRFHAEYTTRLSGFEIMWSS
Chain of cubilin (purified; species of origin not stated where used) (receptor) (O70244 33-3623): as above

- Binding to megalin (control experiments) ([1]; megalin chip): no binding
Substance: Intrinsic factor vitamin B12: intrinsic factor-vitamin B12 complexes

- reduction of cubilin binding to megalin [2]: 75%
- reduction of endocytosis of 125I-IF-B12 in cultured yolk sac cell [3]: 10 to 15%
Substance: RAP (Receptor related protein) (ligand)

- Reduction of binding of cubilin to megalin ([1]; RAP prebound to megalin): 75%
- Competition between ligands for binding to cubilin [4]: does not inhibit
Substance: RAP: Receptor related protein; binds megalin and cubilin

Substance: albumin: bovine serum albumin used as nonspecific protein control
- Effect on FITC-light chain endocytosis [5]: no effect
- Effect of free protein on binding of cubilin to immobilized light chains (competition) [6]: neither competed with light chains, nor bound to cubilin
- Endosomal fusion [7]: 1584±314 arbitrary fluorescence units/mg protein

- pKd [8]: 8.15
Substance: cubilin (purified; species of origin not stated where used) (receptor)

- pKd ([1]; binding data fitted to a one-binding-site model, 20 nM purified cubilin over immobilized rabbit megalin): 8.15
Substance: cubilin: 460 kDa epithelial glycoprotein receptor for intrinsic factor-vitamin B12 complexes; rat sequence SEQ ID No. 2

Substance: cytochrome c: low molecular weight protein competing with light chain
- Competition with light chain for brush border membrane binding [9]: competing

- FITC-light chain binding ([10]; 10 μM gentamicin): 45.1±3.1 arbitrary fluorescence units
- FITC-light chain binding ([10]; 100 μM gentamicin): 8.9±33.8 arbitrary fluorescence units
- FITC-light chain binding ([10]; 1000 μM gentamicin): 6.3±1.9 arbitrary fluorescence units
- Competition between ligands for binding to cubilin [4]: directly interferes
Substance: gentamicin

- Competition between ligands for binding to cubilin [4]: do not compete
Substance: haptoglobin: protein ligand for cubilin

Substance: lysozyme
- Competition with light chain for brush border membrane binding [9]: competing

Substance: myoglobin
- Competition with light chain for brush border membrane binding [9]: competing
